Results reported in patent US20110144331A1, “Cinnoline Compounds for the Treatment of Anxiety, Cognitive and Mood Disorders” (AstraZeneca AB, priority 2005, published 2011).

Columns and labels:
[1] = biological target: T1, human α2β3γ2 GABAA receptor (Homo sapiens, UniProt P18507+P47869); test: Two-electrode voltage-clamp in Xenopus oocytes, potentiation of GABA EC10 current, GABAA2; format: cell-based; settings: percentage potentiation of GABA EC10 current divided by that of diazepam control
T1 construct: expressed in transfected cells; host or cells: Xenopus laevis oocytes injected with capped cRNA (α:β:γ 1:1:1)
Experimental: (§1) GABAA receptors were heterologously expressed in Xenopus oocytes by injecting cRNA corresponding to human α1, α2, α3, α5, β2, β3 and γ2 subunits of the GABAA receptor genes. The specific subunit combinations (subtypes) were as follows: α1β2γ2, α2β3γ2, α3β3γ2, and α5β3γ2. The EC10 of GABA was approximated for each cell. Stability of GABA-mediated (EC10) current was established. Modulatory effect of test compound was determined and compared across subtypes. […] Thus, the assay can characterize modulatory effects and determine subtype selectivity of test compounds on major subtypes of GABAA receptors.
(§2) Surgically removed ovarian lobes were teased out in OR2 solution (82 NaCl, 2.5 KCl, 5 HEPES, 1.5 NaH2PO4, 1 MgCl2, 0.1 EDTA, in mM, pH 7.4). The oocytes were defolliculated by incubation in 25 mL OR2 containing 0.2% collagenase 1A (SIGMA) two times for about 60 minutes on a platform shaker and stored in Leibovitz's L-15 medium. Oocytes were injected the following day in 0.5× Leibovitz's L-15 medium containing […] gentamycin, 10 units/ml penicillin, and […] streptomycin.
(§3) Capped cRNAs from the linearized vectors containing human α1, β2 and γ2 subunits of the GABAA receptor genes were mixed in ratio of 1:1:30. Oocytes were injected with 25-50 nL of mixed RNA with an appx molar ratio for α1, β2, and γ2 as 1:1:10. Oocyte recordings were done 2-10 days after injection. The same methods apply to subtypes derived from α2β2γ2, α3β3γ2, and α5β3γ2, except for 1:1:1 ratio was used for α, β, and γ subunits.
(§4) All measurements were done in a medium containing ND-96 (96 NaCl, 2 KCl, 1.8 CaCl2.2H2O, 1 MgCl2.6H2O, 5 HEPES, in mM, pH 7.5). Two-electrode voltage-clamp recording was carried out using OpusXpress amplifier (Axon Instruments, Foster City, Calif.), which allows simultaneous recording from 8 oocytes. Oocytes were impaled with two electrodes of 1-2 MΩ tip resistance when filled with 3M KCl. Recordings were begun when membrane potential became stable at potentials negative to −50-−60 mV. Membrane potential was held at −60 mV. […] The concentration of GABA corresponded to the EC10 value calculated for each oocyte. The modulator pulses started 30 s before the GABA pulse so as to allow preincubation with the modulator. A set of 3 pulses with just GABA without modulator was given prior to the modulator-containing pulses to define the baseline GABA response. Two oocytes per each experiment were dedicated to observe the effect of diazepam on GABA response to ensure the presence of γ2 subunit in the GABAA pentameric complex, which imparts diazepam sensitivity to the complex.
(§5) Current amplitude (i) was measured from baseline to peak using Clampfit (Axon Inst., Foster City, Calif.). Potentiation was calculated as percent change from the baseline GABA current flux 100×(imod/icontrol)−1) where imod=current mediated by modulator+GABA and icontrol=current mediated by GABA alone. […] Similarly, a value of −50% potentiation means the presence of modulator caused a 50% decrease in the control current. Various other data shown here were fitted and plotted using GraphPad Prism (GraphPad Software, Inc. San Diego, Calif.). The percentage potentiation was converted to relative potentiation by dividing it with percentage potentiation value obtained from the same assay with diazepam as a control.

[2] = biological target: T2, human α1β2γ2 GABAA receptor (Homo sapiens, UniProt P14867+P18507); test: Two-electrode voltage-clamp in Xenopus oocytes, potentiation of GABA EC10 current, GABAA1; format: cell-based; settings: percentage potentiation of GABA EC10 current divided by that of diazepam control
T2 construct: expressed in transfected cells; host or cells: Xenopus laevis oocytes injected with capped cRNA
Experimental: as §1, §2, §3, §4, §5

T2 sequence (P14867 28-456): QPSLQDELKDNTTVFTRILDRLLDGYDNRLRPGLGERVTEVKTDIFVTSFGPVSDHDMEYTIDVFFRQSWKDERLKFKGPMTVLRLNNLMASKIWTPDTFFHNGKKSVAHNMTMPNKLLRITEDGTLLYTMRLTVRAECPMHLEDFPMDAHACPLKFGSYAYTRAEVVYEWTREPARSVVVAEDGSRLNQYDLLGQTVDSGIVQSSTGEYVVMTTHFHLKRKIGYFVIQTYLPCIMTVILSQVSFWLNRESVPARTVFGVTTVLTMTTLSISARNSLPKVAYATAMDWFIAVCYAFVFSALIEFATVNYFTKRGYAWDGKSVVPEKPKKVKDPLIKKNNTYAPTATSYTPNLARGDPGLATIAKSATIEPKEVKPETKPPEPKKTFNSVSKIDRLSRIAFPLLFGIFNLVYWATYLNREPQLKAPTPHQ
T2 sequence (P47870 25-512 partner limits assumed): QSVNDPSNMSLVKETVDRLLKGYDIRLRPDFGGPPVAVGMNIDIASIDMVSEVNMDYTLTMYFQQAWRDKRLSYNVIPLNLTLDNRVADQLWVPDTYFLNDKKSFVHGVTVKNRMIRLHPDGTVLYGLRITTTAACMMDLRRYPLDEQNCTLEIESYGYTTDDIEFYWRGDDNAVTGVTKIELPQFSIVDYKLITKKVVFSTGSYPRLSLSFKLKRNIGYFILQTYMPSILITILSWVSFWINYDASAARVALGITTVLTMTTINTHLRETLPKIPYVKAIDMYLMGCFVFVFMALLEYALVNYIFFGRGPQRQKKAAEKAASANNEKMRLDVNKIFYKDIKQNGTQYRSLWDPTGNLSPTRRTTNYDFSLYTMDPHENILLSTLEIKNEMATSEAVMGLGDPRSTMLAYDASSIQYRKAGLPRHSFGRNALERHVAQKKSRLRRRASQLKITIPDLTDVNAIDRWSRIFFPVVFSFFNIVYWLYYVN
T2 sequence (P18507 40-475): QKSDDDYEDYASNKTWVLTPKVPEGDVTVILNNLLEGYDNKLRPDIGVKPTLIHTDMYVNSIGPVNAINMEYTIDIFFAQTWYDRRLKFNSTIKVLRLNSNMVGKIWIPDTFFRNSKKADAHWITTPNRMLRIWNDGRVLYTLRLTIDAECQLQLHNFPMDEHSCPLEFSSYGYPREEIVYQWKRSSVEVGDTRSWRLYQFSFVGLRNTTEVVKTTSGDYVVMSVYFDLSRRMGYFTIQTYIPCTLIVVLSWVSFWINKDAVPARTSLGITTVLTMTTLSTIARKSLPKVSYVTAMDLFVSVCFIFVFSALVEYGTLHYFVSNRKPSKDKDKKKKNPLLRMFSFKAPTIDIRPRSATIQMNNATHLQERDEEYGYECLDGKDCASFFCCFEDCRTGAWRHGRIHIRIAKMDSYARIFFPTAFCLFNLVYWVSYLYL
T1 sequence (P47869 29-451): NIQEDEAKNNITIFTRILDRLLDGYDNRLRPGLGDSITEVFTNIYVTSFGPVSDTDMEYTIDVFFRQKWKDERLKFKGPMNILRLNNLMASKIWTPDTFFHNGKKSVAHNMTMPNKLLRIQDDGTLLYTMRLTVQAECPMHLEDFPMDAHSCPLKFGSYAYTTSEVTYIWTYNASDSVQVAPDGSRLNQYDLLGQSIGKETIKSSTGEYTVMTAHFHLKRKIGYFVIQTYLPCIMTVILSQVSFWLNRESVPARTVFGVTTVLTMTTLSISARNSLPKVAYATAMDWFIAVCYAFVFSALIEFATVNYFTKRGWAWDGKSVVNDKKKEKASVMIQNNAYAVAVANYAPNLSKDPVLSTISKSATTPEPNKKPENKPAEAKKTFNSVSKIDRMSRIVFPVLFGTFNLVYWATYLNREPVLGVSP
T1 sequence (P18507 40-475): as the sequence (P18507 40-475) above
T1 sequence (P28472 26-473 partner): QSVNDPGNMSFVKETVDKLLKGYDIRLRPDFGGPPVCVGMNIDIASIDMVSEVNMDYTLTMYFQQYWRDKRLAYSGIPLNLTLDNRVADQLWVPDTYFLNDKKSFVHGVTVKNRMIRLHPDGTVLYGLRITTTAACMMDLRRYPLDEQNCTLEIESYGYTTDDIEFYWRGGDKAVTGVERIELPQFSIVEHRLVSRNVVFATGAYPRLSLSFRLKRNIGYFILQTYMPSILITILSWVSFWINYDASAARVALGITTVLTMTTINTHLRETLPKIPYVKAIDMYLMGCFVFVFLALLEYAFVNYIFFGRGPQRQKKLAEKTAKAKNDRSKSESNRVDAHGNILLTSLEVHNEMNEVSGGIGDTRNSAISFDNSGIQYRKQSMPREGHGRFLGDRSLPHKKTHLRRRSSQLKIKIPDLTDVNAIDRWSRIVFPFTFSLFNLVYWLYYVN

| Compound | Relative Potentiation for GABAA2 [1] | Relative Potentiation for GABAA1 [2] |
| --- | --- | --- |
| CCCNC(=O)c1nnc2c(-c3cc(F)ccc3OC)cccc2c1N | 0.4 | 0.026 |
| CCCNC(=O)c1nnc2c(-c3cnc(OC)c(Cl)c3)cccc2c1N | 0.04 | 0.086 |
| CCCCNC(=O)c1nnc2c(-c3cnccc3OC)cccc2c1N | 0.52 | 0.2 |
| CCCNC(=O)c1nnc2c(-c3cc(C)ccc3OC)c(F)ccc2c1N | 0.37 | 0.23 |
| CCCNC(=O)c1nnc2c(-c3ccc(OC)cc3F)cccc2c1N | 0.12 | 0 |
| CCNC(=O)c1nnc2c(-c3cnc(OC)nc3OC)cccc2c1N | 0.35 | 0.005 |
| CCCNC(=O)c1nnc2c(-c3ccc(C)c(C)c3)cccc2c1N | 0.35 | 0.23 |
| CCCNC(=O)c1nnc2c(-c3cccc(C#N)c3)cccc2c1N | 0.31 | 0.088 |
| CCCNC(=O)c1nnc2c(-c3cnc(OC)nc3OC)c(F)ccc2c1N | 0.39 | 0.12 |
| CCCNC(=O)c1nnc2c(-c3cccc(OC)c3F)cccc2c1N | 0.26 | 0.045 |
| CCCNC(=O)c1nnc2c(-c3cc(Cl)cc(Cl)c3)cccc2c1N | 0.48 | 0.28 |
| CCCNC(=O)c1nnc2c(-c3cc(C)ccc3F)cccc2c1N | 0.37 | 0.095 |
| CCCNC(=O)c1nnc2c(-c3cc(C)ccc3C)c(Cl)ccc2c1N | 0.22 | 0.24 |
| CCCNC(=O)c1nnc2c(-c3ccsc3)cccc2c1N | 0.038 | −0.26 |
| CCNC(=O)c1nnc2c(-c3cnc(OC)c(F)c3)cccc2c1N | 0.223 | −0.010 |
| COc1cccc(F)c1-c1cccc2c(N)c(C(=O)NC3CC3)nnc12 | 0.16 | −0.048 |
| CCCNC(=O)c1nnc2c(-c3c(Cl)cccc3OC)cccc2c1N [drawing 410] | 0.119 | −0.040 |
| CCCNC(=O)c1nnc2c(-c3ccc(OC)c(F)c3)c(F)ccc2c1N | 0.16 | 0.1 |
| COc1ncccc1-c1cccc2c(N)c(C(=O)NC3CC3)nnc12 | 0.247 | −0.054 |
| CCCNC(=O)c1nnc2c(-c3cc(OC)cc(OC)c3)cccc2c1N | 0.57 | 0.28 |
| CCCNC(=O)c1nnc2c(-c3cc(C)c(OC)c(C)c3)cccc2c1N | 0.32 | 0.79 |
| CCCNC(=O)c1nnc2c(-c3cnccn3)cccc2c1N | −0.01 | −0.067 |
| CCCNC(=O)c1nnc2c(-c3cccnc3)cccc2c1N | 0.054 | −0.11 |

| Compound | Relative Potentiation for GABAA2 [1] | Relative Potentiation for GABAA1 [2] |
| --- | --- | --- |
| CCCNC(=O)c1nnc2c(-c3ccc(OC)c(C)c3)cccc2c1N | 0.27 | 0.21 |
| CCCNC(=O)c1nnc2c(-c3ccc(C)nc3F)cccc2c1N | 0.27 | 0.053 |
| CCCNC(=O)c1nnc2c(-c3ccc(F)cc3F)cccc2c1N | 0.12 | −0.088 |
| CCCNC(=O)c1nnc2c(-c3cc(OC)c(OC)c(OC)c3)cccc2c1N | 0.67 | 0.4 |
| COc1ccc(-c2cccc3c(N)c(C(=O)NC4CCC4)nnc23)c(OC)c1 | 0.243 | 0.091 |
| CCCNC(=O)c1nnc2c(-c3ccc(OC)cc3F)c(F)ccc2c1N | 0.18 | 0.053 |
| CCCNC(=O)c1nnc2c(-c3ccc(OC)cc3)cccc2c1N | 0.06 | −0.11 |
| CCNC(=O)c1nnc2c(-c3ccc(OC)cc3OC)cccc2c1N | 0.104 | −0.006 |
| CCCNC(=O)c1nnc2c(-c3cccnc3F)cccc2c1N | 0.17 | −0.083 |
| CCCNC(=O)c1nnc2c(-c3ccncc3)cccc2c1N | 0.1 | −0.038 |
| CCCNC(=O)c1nnc2c(-c3cc(C(F)(F)F)ccc3F)cccc2c1N | 0.59 | 0.41 |
| CCCNC(=O)c1nnc2c(-c3cc(Cl)ccc3Cl)cccc2c1N | 0.21 | 0.12 |
| CCCNC(=O)c1nnc2c(-c3cccc(Cl)c3Cl)cccc2c1N | 0.053 | 0.067 |
| CCCNC(=O)c1nnc2c(-c3ccc(OC)cc3C(F)(F)F)cccc2c1N | 0.16 | 0.12 |
| CCCNC(=O)c1nnc2c(-c3cc(F)ccc3OC)c(F)ccc2c1N | 0.22 | 0.085 |
| Nc1c(C(=O)NCC2CC2)nnc2c(-c3ccccc3)cccc12 | 0.24 | 0.11 |
| CCCNC(=O)c1nnc2c(-c3ccc(OC)c(OC)c3)cccc2c1N | 0.28 | 0.33 |
| CCCNC(=O)c1nnc2c(-c3cc(C(F)(F)F)ccc3Cl)cccc2c1N | 0.59 | 0.47 |
| CCCNC(=O)c1nnc2c(-c3ccccc3)c(F)ccc2c1N | 0.02 | −0.093 |
| CCCNC(=O)c1nnc2c(-c3cccnc3OC)cccc2c1N | 0.097 | 0.2 |
| CCCNC(=O)c1nnc2c(-c3cc(F)ccc3C)c(F)ccc2c1N | 0.12 | 0.032 |
| CCCNC(=O)c1nnc2c(-c3ccc(OC(F)(F)F)cc3)cccc2c1N | 0.04 | 0.32 |
